Values after ≈ are worked out from the molar mass of the structure shown. Values joined by “and” are separate entries in the source; they are usually repeats but may differ in a detail not shown here. Equal values may be shown once.
Legend:
[1] = test system: HL-60 human acute promyelocytic leukemia cells; test: Cell growth inhibition assay, resazurin (Example 11); type: cell-based; conditions: mean values of two independent experiments
Procedure: (§1) Human uterine sarcoma (MES-SA; CRL-1976), its multidrug resistant derivative (MES-SA/Dx5; CRL-1977), human acute promyelocytic leukemia cells (HL-60; CCL-240) and its multidrug resistant derivative (HL-60/MX2; CRL-2257) were purchased from ATCC and maintained in appropriate culture media. The cells were cultured in an incubator at 37° C. in 5% CO2 and 95% humidified air.
(§2) For cell growth inhibition assays, MES-SA and MES-SA/Dx5 cells were both seeded at 3×10^3 cells/well in 90 μl complete media into 96 well (Corning; 3904) black-walled, clear-bottom tissue culture plates and the plates were incubated overnight to allow cells to establish and enter log phase growth. HL-60 and HL-60/MX2 cells were both seeded at 5×10^4 cells/well in 90 μl complete media into 96 well plates on the day of compound addition. 20 mM stock solutions of the compounds were prepared in 100% DMSO and stored at −80° C. […] Ten μl volumes of the 10× serial dilutions were added to the test wells in triplicate and the plates returned to the incubator for 48 hours. The final concentration of DMSO was 0.25% in all samples.
(§3) Following 48 hours of drug exposure, 10 μl of 0.2 mg/ml resazurin (obtained from Sigma-Aldrich Chemical Co.) in Mg^2+, Ca^2+ free phosphate buffered saline was added to each well and the plates were returned to the incubator for 3-6 hours. […] Resazurin dye in medium without cells was used to determine the background, which was subtracted from the data for all experimental wells.
(§4) HL-60/MX2 is a multidrug resistant tumor cell line derived from the human promyelocytic leukemia cell line, HL-60 and expresses reduced topoisomerase II activity. The data presented in Table 20 summarize the growth inhibitory effects of NPI-2421, NPI-2463, NPI-2503, NPI-2504 and NPI-2506 against HL-60 and its multidrug resistant derivative HL-60/MX2. Mitoxantrone, the topoisomerase II targeting agent was included as a control.

[2] = test system: MES-SA human uterine sarcoma; test: as above; type: cell-based; conditions: mean ± standard deviation of three independent experiments
Procedure: as §1, §2, §3
(§5) The multidrug resistant MES-SA/Dx5 tumor cell line was derived from the human uterine sarcoma MES-SA tumor cell line and expresses elevated P-Glycoprotein (P-gp), an ATP dependent efflux pump. The data in Table 19 summarize the growth inhibitory effects of NPI-2421, NPI-2463, NPI-2503, NPI-2504 and NPI-2506 against MES-SA and its multidrug resistant derivative MES-SA/Dx5. Paclitaxel, a known substrate of the P-gp pump was included as a control.

[3] = test system: MES-SA/Dx5 multidrug resistant; test: as above; type: cell-based, human
Procedure: as §1, §2, §3, §5

[4] = test system: HL-60/MX2 multidrug resistant; test: as above; type: cell-based, human
Procedure: as §1, §2, §3, §4

[5] = test system: HT-29 human colorectal carcinoma cells; test: Cell growth inhibition assay, resazurin (Table 3.2); type: cell-based; conditions: Table 3.2, HT-29 cells, read-out: EC50 (M) Mean
Method in brief: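 HT-29 cells seeded at 5×10^3/well overnight, then exposed in triplicate to compounds at final 20 μM to […] (0.25% DMSO) for 48 h at 37° C. Viability read by resazurin reduction after 3-4 h further incubation, with cell-free dye background subtracted.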

[6] = test system: NCI-H292 non-small cell lung carcinoma; test: Cell growth inhibition assay, resazurin (Example 11); type: cell-based; conditions: Homo sapiens, 48 hours, mean ± SD where n ≧ 3, ** n = 1
Procedure: (§6) The growth inhibitory activity of NPI-2421, NPI-2463, NPI-2503 and NPI-2504 were determined against selected human (colorectal adenocarcinoma, HT-29; breast adenocarcinoma, MDA-MB-231; non-small cell lung carcinoma, NCI-H292 and prostate carcinomas, PC-3 and DU 145) and mouse (melanoma, B16-F10) tumor cell lines.
(§7) HT-29 (HTB-38), MDA-MB-231 (HTB-26), NCI-H292 (CRL-1848), B16-F10 (CRL-6475), PC-3 (CRL-1435) and DU 145 (HTB-81) cells were all purchased from the ATCC. The cell lines were maintained in their respective ATCC recommended culture media and cultured in an incubator at 37° C. in 5% CO2 and 95% humidified air.
(§8) 20 mM stock solutions of compounds were prepared in 100% DMSO and stored at −80° C. 10× concentrated serial dilutions of the compounds were prepared in B16-F10 cell culture medium for final concentrations ranging from 20 μM to […]. Ten μl volumes of the 10× serial dilutions were added to the test wells in triplicate and the plates returned to the incubator for 48 hours. The final concentration of DMSO was 0.25% in all samples.
as §3

B16-F10 melanoma = test: as above; type: cell-based; conditions: Mus musculus, 48 hours, mean ± SD where n ≧ 3
Procedure: as §6, §7, §8, §3

[7] = test system: MDA-MB-231 breast adenocarcinoma; test: as above; type: cell-based; conditions: Homo sapiens, 48 hours, mean ± SD where n ≧ 3
Procedure: as §6, §7, §8, §3

PC-3 prostate carcinoma = test: as above; type: cell-based; conditions: Homo sapiens, 48 hours, mean ± SD where n ≧ 3, ** n = 1
Procedure: as §6, §7, §8, §3

[8] = test system: HT-29 colorectal adenocarcinoma; test: as above; type: cell-based; conditions: Homo sapiens, 48 hours, mean ± SD where n ≧ 3
Procedure: as §6, §7, §8, §3

Epidermophyton floccosum = test: Antifungal susceptibility testing, broth dilution (MIC/MFC); type: cell-based
Procedure: (§9) Specifically, disclosed compounds were evaluated alongside commercially available microtubulin inhibitors as well as recognized antifungal agents. […].
(§10) Microorganisms against which these compounds were tested included: Candida albicans, Candida glabrata, Aspergillus fumigatus, Trichophyton rubrum, Trichophyton mentagrophytes, Epidermophyton floccosum. With the exception of Candida glabrata (one isolate), two isolates of each species were tested.
(§11) Drug concentrations were 0.03-16 μg/ml for the investigational compounds, 0.015-8 μg/ml for itraconazole and griseofulvin.
(§12) The minimum lethal concentration (MLC) was determined by plating […] from the MIC concentration and each concentration above the MIC. […] When a MIC was obtained, a minimum fungicidal concentration (MFC) was determined to assess the fungistatic/fungicidal nature of the compound. […] The compound is scored as fungistatic if the cells are able to resume growth and fungicidal if no regrowth is possible because the compound had killed the organisms.

[9] = test system: Trichophyton mentagrophytes; test: as above; type: cell-based; conditions: Trichophyton mentagrophytes
Procedure: as §9, §10, §11, §12

Trichophyton rubrum = test: as above; type: cell-based; conditions: Trichophyton rubrum
Procedure: (§13) Specifically, disclosed compounds were evaluated alongside commercially available microtubulin inhibitors as well as recognized antifungal agents.
as §10
(§14) The minimum lethal concentration (MLC) was determined by plating […] from the MIC concentration and each concentration above the MIC. […] When a MIC was obtained, a minimum fungicidal concentration (MFC) was determined to assess the fungistatic/fungicidal nature of the compound.

Aspergillus fumigatus = test: as above; type: cell-based; conditions: Aspergillus fumigatus, A. fumigatus isolate #2; read-out: MIC
Procedure: as §13, §10, §14

HuVEC = test: Action on microtubule function, α-tubulin staining; conditions: 2 μM, thirty minutes exposure
[10] = test system: MES-SA (Taxol Sensitive) human uterine sarcoma; test: Drug resistant cell line pair, cytotoxicity (Example 10B); type: cell-based; conditions: IC50 CsA Pretreat relative to No CsA
Description: (§15) 1) Human Uterine Sarcoma Tumor Cell Line Pair: MES-SA (Taxol Sensitive) and MES-SA/Dx5 (Taxol Resistant).

[11] = test system: MES-SA/Dx5 (Taxol Resistant) human uterine sarcoma; test: as above; type: cell-based
Description: as §15

[12] = test system: MCF-7/ADR (Taxol Resistant) human breast carcinoma; test: as above; type: cell-based
Description: (§16) 3). Human Breast Carcinoma Cell Line Pair: MCF-7 (Taxol Sensitive) and MCF-7/ADR (Taxol Resistant)

[13] = test system: MCF-7 (Taxol Sensitive) human breast carcinoma; test: as above; type: cell-based
Description: as §16

CC(C)(C)c1ocnc1/C=c1\[nH]c(=O)/c(=C/c2cc(F)cc(F)c2F)[nH]c1=O [Compound 2503, tBu-oxadelta-PLH-2,3,5-trifluoro]
EC50 [1]: 28 nM | EC50 [2]: 13 ± 3 nM | EC50 ([3]; Homo sapiens, MES-SA/Dx5, mean ± standard deviation of three independent experiments): 13 ± 3 nM | cytotoxic activity against both MES-SA and MES-SA/Dx5 ([3]; in words): retained equivalent cytotoxic activity | Fold change ([3]; ratio of EC50 values (MES-SA/Dx5:MES-SA)): 1.0 | EC50 ([4]; Homo sapiens, HL60/MX2, HL-60/MX2, mean values of two independent experiments): 19 nM | cytotoxic activity against both HL-60 and HL-60/MX2 ([4]; in words): retained cytotoxic activity | Fold change ([4]; ratio of EC50 values (HL-60/MX2:HL-60)): 0.7 | EC50 [5]: 1.14e-08 M | EC50 [6]: 52 nM | EC50 (B16-F10 melanoma): 16 ± 2 nM | EC50 [7]: 21 nM | EC50 (PC-3 prostate carcinoma): > 2000 nM | EC50 [8]: 17 nM

COC1=CC(=O)C[C@@H](C)[C@]12Oc1c(Cl)c(OC)cc(OC)c1C2=O [griseofulvin, Griseofulvin, reference compound]
MIC (Epidermophyton floccosum; E. floccosum isolate #1): 2 µg/mL (≈ 5.67 µM) | MIC (Epidermophyton floccosum; E. floccosum isolate #2): 4 µg/mL (≈ 11.3 µM) | MIC ([9]; T. mentagrophytes isolate #1): 1 µg/mL (≈ 2.83 µM) | MIC ([9]; T. mentagrophytes isolate #2): 2 µg/mL (≈ 5.67 µM) | MIC (Trichophyton rubrum; T. rubrum isolate #1): 0.5 µg/mL (≈ 1.42 µM) | MIC (Trichophyton rubrum; T. rubrum isolate #2): < 0.015 µg/mL | MIC (Aspergillus fumigatus): 0.5 µg/mL (≈ 1.42 µM)

CC(=O)O[C@H]1C(=O)[C@@]2(C)[C@H]([C@H](OC(=O)c3ccccc3)[C@]3(O)C[C@H](OC(=O)[C@H](O)[C@@H](NC(=O)c4ccccc4)c4ccccc4)C(C)=C1C3(C)C)[C@]1(OC(C)=O)CO[C@@H]1C[C@@H]2O [Taxol, reference compound]
microtubule depolymerization in HuVEC cells (HuVEC): did not induce microtubule depolymerization | Ratio No CsA [10]: 0.6 and 0.4 | effect of Cyclosporin A (CsA) treatment ([11]; CsA pretreatment): restored the sensitivity to taxol | potency in the resistant MES-SA/DX5 line vs the sensitive line ([11]; in words): virtually inactive | IC50 ([12]; Homo sapiens, NCI/ADR-RES, read-out: MCF-7/ADR Resistant IC 50 nM, Table 15): > 100 nM | MCF-7/ADR Resistant Ratio to Sensitive ([12]; Table 15): >>38 | potency in resistant MCF-7/ADR vs sensitive MCF-7 ([12]; in words): virtually inactive in the resistant cell line | IC50 ([13]; Homo sapiens, MCF7/Taxol, Table 15, read-out: MCF-7 Sensitive IC50): 2.6 nM | potency in the sensitive MCF-7 cell line ([13]; in words): low nanomolar potency

Source: patent US8129527B2, “Analogs of dehydrophenylahistins and their therapeutic use” (Nereus Pharmacuticals, Inc., priority 2006, dated 2012)
